We go through ten compounds from patent US12600696B2 (XENIOPRO GMBH, priority 2017, dated 2026).

Common to all, as to type: cell-based
The subject of assay [1] is HL-60 cells (human acute myeloid leukemia cells). The experiment in a line: alamarBlue proliferation assay with HL-60 cells. The note with it: 120 h, 5 days, relative to DMSO baseline level of 1.0, read-out: AVEw, weighted arithmetic mean of normalized fluorescence intensity values (Activity Range), HL-60 proliferation. In a few lines: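 HL-60 cells (1000/well, RPMI 1640 + 10% FBS) exposed to compound in 0.1% DMSO for 5 days, then alamarBlue fluorescence read (ex 560/em 590 nm). Signals normalized to six DMSO wells per plate (baseline 1.0); outliers removed by Peirce/Chauvenet; weighted mean with combined SD; inhibitor criterion judged at 20 μM reference concentration.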

Assay [2] deals with CAL-27 cells (human tongue squamous cell carcinoma cells). The experiment in a line: alamarBlue proliferation assay with CAL-27 cells. Particulars: Homo sapiens, 120 h; for activity at 40 µM: relative to DMSO basis level 1.0, read-out: weighted arithmetic mean (AVEw) of normalized fluorescence intensity, activity range; for activity at 20 µM: 5 days, relative to DMSO baseline level of 1.0, read-out: AVEw, weighted arithmetic mean of normalized fluorescence intensity values (Activity Range), CAL-27 proliferation. The method, boiled down: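 CAL-27 cells seeded at 2000 per well, exposed to compound in 0.1% DMSO for 5 days, then alamarBlue fluorescence (ex 560/em 590 nm). Values normalized to DMSO wells (1.0) as weighted means with combined standard deviation; growth inhibition judged at 20 μM reference concentration.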

Assay [3] relates to TT cells (human medullary thyroid carcinoma cells). Description: alamarBlue proliferation assay with TT cells. Particulars: Homo sapiens, 120 h, 40 μM, relative to DMSO basis level 1.0, read-out: weighted arithmetic mean (AVEw) of normalized fluorescence intensity, activity range. As to the method: (§1) The antiproliferative activities of compounds falling under formula I, formula II, formula III, formula IV and formula V were investigated on cells or cell lines originating from a disorder of the myeloid cell compartment, the neuroendocrine system, the cervix, and the mucosal epithelium, as well as from the skin epithelium. To this end, HL-60 cells, TT cells, HeLa cells, CAL-27 cells and human primary epidermal keratinocytes (HPEK) were seeded into 96-well plates suitable for fluorescence assays (CORNING #3598) at following initial cell numbers: 1000 cells per well for HL-60; 9000 cells per well for TT; 2000 cells per well for HeLa, 2000 cells per well for CAL-27, 2000 cells per well for HPEK. The cells were treated with compounds at indicated final concentrations (diluted from the 1000× stock-solutions in DMSO to a final DMSO concentration of 0.1% v/v) or with the empty carrier DMSO at 0.1% v/v as control for 5 days. At day 5 after starting the treatments the cells were subjected to the alamarBlue® Proliferation Assay (Bio-Rad Serotec GmbH, BUF012B) according to the protocol of the manufacturer. The readout was taken with a multi-well plate-reader in the fluorescence mode with applying a filter for excitation at 560 nm (band width 10 nm) and for emission at 590 nm (band width 10 nm). Resveratrol (RES) treatment was included as control for growth inhibition.
(§2) The assays were performed in duplicate or more replicates of independent single experiments each containing a six-fold replicate for every condition. For every individual plate, the measured fluorescence intensity values of the conditions with compound treatment were normalized against the corresponding equally weighted arithmetic mean of the fluorescence intensity values of the six DMSO treated control wells in order to obtain the relative values to a baseline level of 1.0. The statistical calculations were performed in analogy to the luciferase assay as described above. To this end, two independent outlier analyses were performed according to the methods by Peirce and Chauvenet (Ross, Journal of Engineering Technology 2003, 1-12). Outliers confirmed by at least one of the methods were excluded from the calculations but not more than one value out of six per compound within a single experiment. The weighted arithmetic mean AVEw for each compound was calculated from the normalized values over all independent replicates of the single experiments comprising the six replicates each. The corresponding standard deviation for the weighted arithmetic mean was calculated according to the method described by Bronstein et al. (Bronstein, Semendjajew, Musiol, Mühlig, Taschenbuch der Mathematik, 5th edition 2001 (German), publisher: Verlag Harri Deutsch, Frankfurt am Main and Thun) and was combined with the Gauß′ error propagation associated with the performed calculation for the normalization. The resulting standard deviation is herein referred to as “combined standard deviation”.
TT cells were cultivated according to the protocol of the provider in F-12K medium (Fisherscientific, #11580556, or ATCC, #ATCC-30-2004) containing 10% fetal bovine serum (Fisherscientific, #15517589).
(§3) A compound is considered as a growth inhibitor of TT cells, if—at a reference concentration of 40 μM—the weighted arithmetic mean of the normalized fluorescence intensity values after addition of the corresponding combined standard deviation amounts to 0.9 or lower, in particular to 0.8 or lower, 0.7 or lower, 0.6 or lower, 0.4 or lower, and 0.2 or lower, relative to the overall basis level of 1.0. The overall basis level was calculated as the weighted arithmetic mean of all normalized values from the DMSO control measurements in analogy to the calculations performed for the test-compounds. The corresponding combined standard deviation for the DMSO values amounts to less than 1·10^−2.

Assay [4] deals with HPEKp cells (human epidermal keratinocyte progenitors, pooled). Description: alamarBlue proliferation assay with HPEKp cells. The note with it: 120 h, relative to DMSO basis level 1.0, read-out: weighted arithmetic mean (AVEw) of normalized fluorescence intensity, activity range. As to the method:
as §1, §2
HPEKp cells were cultivated according to the protocol of the provider in CnT-Prime epithelial culture medium (CELLnTEC, #CnT-PR, a fully defined, low calcium formulation, completely free of animal or human-derived components) without addition of further components.
as §3, with “HPEKp” for “TT”, “10” for “40”

The test system of assay [5] is BHY cells (human oral squamous cell carcinoma cells). Description: alamarBlue proliferation assay with BHY cells. The note with it: 72 h, 3 days treatment, single assay (preliminary), relative to DMSO basis level 1.0, read-out: equally weighted arithmetic mean (AVE) of six normalized fluorescence intensity values, activity range (RES: AVEw). How it is done:
Compounds were tested on BHY cells using the alamarBlue® proliferation assay in analogy to the above described method with seeding the cells at an initial number of 4000 cells per 96-well and a duration of treatment with compounds for 3 days.
BHY cells were cultivated according to the protocol of the provider (but at 5% instead of 10% CO2) in DMEM medium (Fisherscientific, #11584456) containing 10% fetal bovine serum (Fisherscientific, #15517589).
A compound is considered as a growth inhibitor of BHY cells, if—at a reference concentration of 40 μM—the equally weighted arithmetic mean (AVE) of the six normalized fluorescence intensity values after addition of the corresponding standard deviation amounts to 0.9 or lower, in particular to 0.8 or lower, 0.7 or lower, 0.6 or lower, 0.4 or lower, and 0.2 or lower, relative to the overall basis level of 1.0. The overall basis level was calculated as the weighted arithmetic mean (AVEw) of all normalized values from the DMSO control measurements. The corresponding combined standard deviation for the DMSO values amounts to less than 1·10^−2. The corresponding standard deviations for the tested compounds were calculated including the Gauß′ error propagation associated with the performed calculation for the normalization. The weighted arithmetic mean (AVEw) and the combined standard deviation for RES was calculated in analogy to DMSO. Outlier analyses were performed as described above.

Turning to `NC(=O)c1ccc(Oc2ccc(C34CC5CC(CC(C5)C3)C4)cc2)cc1` [Compound 161, 4-(4-((3r,5r,7r)-adamantan-1-yl)phenoxy)benzamide], in assay [1], the activity at 20 µM was in the range of 20 to 40%. For the same compound, the activity at 40 µM was 20 to 40% in assay [2] and 40 to 60% in assay [3].
Regarding `CCCCc1ccc(Oc2ccc(C(=O)NO)cc2)cc1` [Compound 167, 4-(4-butylphenoxy)-N-hydroxybenzamide], the activity at 20 µM in assay [1] fell in the range of 40 to 60%; in assay [2], 60 to 70%. For the same compound, the activity at 40 µM in assay [2] was in the range of 0 to 20%; in assay [3], 20 to 40%.
As for `CNC(=O)c1ccc(Oc2ccc(C3C[C@@H]4CC[C@H]3C4)cc2)cc1` (stereo partly drawn) [Compound 210, 4-(4-((1S,4R)-bicyclo[2.2.1]heptan-2-yl)phenoxy)-N-methylbenzamide], the activity at 20 µM in assay [1] lay in the range of 20 to 40%; in assay [2], 70 to 80%. Besides, the activity at 40 µM in assay [2] was 0 to 20%; in assay [3] it was 60 to 70%.
In the case of `CN(C)C(=O)c1ccc(Oc2ccc(C3CC4CCC3CC4)cc2)cc1` (centres unmarked) [Compound 237, 4-(4-((1s,4s)-bicyclo[2.2.2]octan-2-yl)phenoxy)-N,N-dimethylbenzamide], the activity at 20 µM was in the range of 20 to 40% in assay [1] and 40 to 60% in assay [2]. Besides, the activity at 40 µM in assay [2] lay in the range of 20 to 40%; in assay [3] it was 40 to 60%.
`CNC(=O)c1ccc(Oc2ccc(C3CCCCC3)cc2)nc1` [Compound 309, 6-(4-cyclohexylphenoxy)-N-methylnicotinamide]: the activity at 40 µM in assay [3] is 80 to 90%.
For `O=C(NO)c1ccc(Oc2ccc(C3CCCCC3)cc2)c(F)c1` [Compound 540, 4-(4-cyclohexylphenoxy)-3-fluoro-N-hydroxybenzamide], the activity at 20 µM in assay [1] and in assay [2] was 0 to 20% throughout. Moreover, the activity at 40 µM in assay [3] lay in the range of 20 to 40%; in assay [5], 0 to 20%. In addition, the activity at 10 µM in assay [4] was 20 to 40%.
As to `CCC(C)(C)c1ccc(Oc2ncc(C(=O)NO)cc2F)cc1` [Compound 633], the activity at 20 µM in assay [1] and in assay [2] was 0 to 20% in each case. Also, the activity at 40 µM in assay [5] fell in the range of 20 to 40%.
With `CCOC(=O)c1ccc(Oc2ccc(C3(C(F)(F)F)CC3)cc2Cl)cc1` [Compound 729, Ethyl 4-(2-chloro-4-(1-(trifluoromethyl)cyclopropyl)phenoxy)-benzoate], in assay [1], the activity at 20 µM was 40 to 60%. Also, the activity at 40 µM in assay [2] and in assay [3] was 20 to 40% throughout.
For `CCOC(=O)c1ccc(Oc2ccc(C3(C(F)(F)F)CC3)cc2)nc1` [Compound 748, ethyl 6-(4-(1-(trifluoromethyl)cyclopropyl)phenoxy)nicotinate], the activity at 40 µM in assay [3] was 70 to 80%.
With `O=C(NO)c1ccc(Oc2ccc(C3(C(F)(F)F)CC3)cc2)c(F)c1` [Compound 768, 3-fluoro-N-hydroxy-4-(4-(1-(trifluoromethyl)cyclopropyl)phenoxy)benzamide], the activity at 20 µM in assay [1] is 0 to 20%; in assay [2] it was 20 to 40%. Moreover, the activity at 40 µM in assay [2] fell in the range of 20 to 40%; in assay [3] it was 0 to 20%.
